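48-hour exposure; five concentrations; linearly interpolated endpoints. GI50: concentration for 50% inhibition of growth. TGI marks complete inhibition of growth.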
Key:
Assay in all cases: NCI-60 cell line screen, 48 h
SN12C renal = test system: SN12C renal
HOP-92 NSCLC = test system: HOP-92 NSCLC
786-0 renal = test system: 786-0 renal
HCT-116 colon = test system: HCT-116 colon
NCI/ADR-RES ovarian = test system: NCI/ADR-RES ovarian
HS 578T breast = test system: HS 578T breast
HCT-15 colon = test system: HCT-15 colon
TK-10 renal = test system: TK-10 renal
UACC-257 melanoma = test system: UACC-257 melanoma
T-47D breast = test system: T-47D breast
HT29 colon = test system: HT29 colon
BT-549 breast = test system: BT-549 breast
UACC-62 melanoma = test system: UACC-62 melanoma
HOP-62 NSCLC = test system: HOP-62 NSCLC
SR leukemia = test system: SR leukemia
CAKI-1 renal = test system: CAKI-1 renal
CCRF-CEM leukemia = test system: CCRF-CEM leukemia
PC-3 prostate = test system: PC-3 prostate
MOLT-4 leukemia = test system: MOLT-4 leukemia
SW-620 colon = test system: SW-620 colon
MCF7 breast = test system: MCF7 breast
NCI-H522 lung = test system: NCI-H522 lung
OVCAR-5 ovarian = test system: OVCAR-5 ovarian
KM12 colon = test system: KM12 colon
SK-OV-3 ovarian = test system: SK-OV-3 ovarian
RPMI-8226 leukemia = test system: RPMI-8226 leukemia
SNB-75 CNS = test system: SNB-75 CNS
HL-60(TB) leukemia = test system: HL-60(TB) leukemia
ACHN renal = test system: ACHN renal
U251 CNS = test system: U251 CNS
LOX IMVI melanoma = test system: LOX IMVI melanoma
K-562 leukemia = test system: K-562 leukemia
NCI-H460 lung = test system: NCI-H460 lung
SF-268 CNS = test system: SF-268 CNS
MALME-3M melanoma = test system: MALME-3M melanoma
DU-145 prostate = test system: DU-145 prostate
M14 melanoma = test system: M14 melanoma
MDA-MB-231 breast = test system: MDA-MB-231 breast
NCI-H23 lung = test system: NCI-H23 lung
A498 renal = test system: A498 renal
MDA-MB-435 = test system: MDA-MB-435
SF-295 CNS = test system: SF-295 CNS
SK-MEL-28 melanoma = test system: SK-MEL-28 melanoma
COLO 205 colon = test system: COLO 205 colon
RXF 393 renal = test system: RXF 393 renal
SNB-19 CNS = test system: SNB-19 CNS
SK-MEL-5 melanoma = test system: SK-MEL-5 melanoma
UO-31 renal = test system: UO-31 renal
OVCAR-4 ovarian = test system: OVCAR-4 ovarian
A549 NSCLC = test system: A549 NSCLC
OVCAR-8 ovarian = test system: OVCAR-8 ovarian
OVCAR-3 ovarian = test system: OVCAR-3 ovarian
SF-539 CNS = test system: SF-539 CNS
IGROV1 ovarian = test system: IGROV1 ovarian
HCC-2998 colon = test system: HCC-2998 colon
EKVX NSCLC = test system: EKVX NSCLC

## CN=C(N)N/N=C(\C)c1ccc2c(c1)Cc1cc(/C(C)=N/NC(N)=NC)ccc1-2
SN12C renal
  GI50: 0.254 µM
  TGI: 0.781 µM
HOP-92 NSCLC
  GI50: 1.33 µM
  TGI: 6.15 µM
786-0 renal
  GI50: 0.752 µM
  TGI: > 100 µM
HCT-116 colon
  GI50: 2.36 µM
  TGI: > 100 µM
NCI/ADR-RES ovarian
  GI50: 10.9 µM
  TGI: > 100 µM
HS 578T breast
  GI50: 0.725 µM
  TGI: 3.76 µM
HCT-15 colon
  GI50: 2.04 µM
  TGI: > 100 µM
TK-10 renal
  GI50: 2.32 µM
  TGI: 7.09 µM
UACC-257 melanoma
  GI50: 3.23 µM
  TGI: > 100 µM
T-47D breast
  GI50: 2.02 µM
  TGI: 5.47 µM
HT29 colon
  GI50: 2.13 µM
  TGI: > 20.8 µM
BT-549 breast
  GI50: 1.96 µM
  TGI: 5.62 µM
UACC-62 melanoma
  GI50: 2.48 µM
  TGI: > 100 µM
HOP-62 NSCLC
  GI50: 0.668 µM
  TGI: > 100 µM
SR leukemia
  GI50: 1.81 µM
  TGI: > 100 µM
CAKI-1 renal
  GI50: 2.07 µM
  TGI: 5.37 µM
CCRF-CEM leukemia
  GI50: 0.444 µM
  TGI: > 100 µM
PC-3 prostate
  GI50: 2.13 µM
  TGI: 5.8 µM
MOLT-4 leukemia
  GI50: 0.422 µM
  TGI: > 100 µM
SW-620 colon
  GI50: 2.36 µM
  TGI: 6.19 µM

## FC(F)(F)Oc1cccc(-c2cnc3ccc(-c4ccncc4)nn23)c1
SN12C renal
  GI50: 1.56 µM
  TGI: > 100 µM
HOP-92 NSCLC
  GI50: 1.8 µM
  TGI: 7.82 µM
786-0 renal
  GI50: 1.75 µM
  TGI: > 100 µM
HCT-116 colon
  GI50: 0.518 µM
  TGI: > 100 µM
MCF7 breast
  GI50: 1.56 µM
  TGI: 6.12 µM
NCI-H522 lung
  GI50: 0.771 µM
  TGI: 2.82 µM
OVCAR-5 ovarian
  GI50: 1.96 µM
  TGI: > 100 µM
NCI/ADR-RES ovarian
  GI50: 2.09 µM
  TGI: 95.5 µM
KM12 colon
  GI50: 0.662 µM
  TGI: > 100 µM
HS 578T breast
  GI50: 1.21 µM
  TGI: 4.24 µM
SK-OV-3 ovarian
  GI50: 0.392 µM
  TGI: 2.11 µM
RPMI-8226 leukemia
  GI50: 1.31 µM
  TGI: 4.84 µM
SNB-75 CNS
  GI50: 1.73 µM
  TGI: 5.14 µM
HL-60(TB) leukemia
  GI50: 1.82 µM
  TGI: 4.29 µM
ACHN renal
  GI50: 0.447 µM
  TGI: 4.8 µM
U251 CNS
  GI50: 0.833 µM
  TGI: > 100 µM
LOX IMVI melanoma
  GI50: 1.07 µM
  TGI: 10.2 µM
K-562 leukemia
  GI50: 3.49 µM
  TGI: > 100 µM
NCI-H460 lung
  GI50: 0.996 µM
  TGI: > 100 µM
HCT-15 colon
  GI50: 0.608 µM
  TGI: > 100 µM
TK-10 renal
  GI50: 1.14 µM
  TGI: 9.76 µM
SF-268 CNS
  GI50: 2.22 µM
  TGI: > 100 µM
MALME-3M melanoma
  GI50: 2.35 µM
  TGI: > 100 µM
DU-145 prostate
  GI50: 1.6 µM
  TGI: > 100 µM
UACC-257 melanoma
  GI50: 2.02 µM
M14 melanoma
  GI50: 0.769 µM
  TGI: > 100 µM
T-47D breast
  GI50: 0.571 µM
  TGI: 4.26 µM
HT29 colon
  GI50: 1.34 µM
  TGI: > 100 µM
MDA-MB-231 breast
  GI50: 3.18 µM
  TGI: > 100 µM
BT-549 breast
  GI50: 1.42 µM
  TGI: 8.88 µM
UACC-62 melanoma
  GI50: 1.01 µM
  TGI: 6.17 µM
NCI-H23 lung
  GI50: 1.96 µM
  TGI: 17.4 µM
HOP-62 NSCLC
  GI50: 2.17 µM
  TGI: > 100 µM
A498 renal
  GI50: 0.365 µM
  TGI: 2.42 µM
MDA-MB-435
  GI50: 2.11 µM
  TGI: 48.9 µM
SR leukemia
  GI50: 0.744 µM
  TGI: 11.8 µM
CAKI-1 renal
  GI50: 0.417 µM
  TGI: 4.11 µM
SF-295 CNS
  GI50: 1.54 µM
  TGI: > 100 µM
SK-MEL-28 melanoma
  GI50: 2.53 µM
  TGI: > 100 µM
COLO 205 colon
  GI50: 1.5 µM
  TGI: 16.7 µM
RXF 393 renal
  GI50: 0.398 µM
  TGI: 2.41 µM
SNB-19 CNS
  GI50: 2.07 µM
  TGI: > 100 µM
SK-MEL-5 melanoma
  GI50: 1.49 µM
  TGI: 3.23 µM
UO-31 renal
  GI50: 0.708 µM
  TGI: 4.77 µM
OVCAR-4 ovarian
  GI50: 1.4 µM
  TGI: 11.3 µM
A549 NSCLC
  GI50: 1.12 µM
  TGI: 9.22 µM
CCRF-CEM leukemia
  GI50: 2.03 µM
  TGI: 27 µM
OVCAR-8 ovarian
  GI50: 1.47 µM
  TGI: > 100 µM
OVCAR-3 ovarian
  GI50: 1.65 µM
  TGI: 7.43 µM
SF-539 CNS
  GI50: 1.13 µM
  TGI: 7.4 µM
IGROV1 ovarian
  GI50: 0.502 µM
  TGI: 5.46 µM
HCC-2998 colon
  GI50: 4.47 µM
  TGI: > 100 µM
MOLT-4 leukemia
  GI50: 2.17 µM
  TGI: 7.73 µM
SW-620 colon
  GI50: 0.801 µM
  TGI: > 100 µM
EKVX NSCLC
  GI50: 1.39 µM
  TGI: > 100 µM
